Patent publication US12070489B2, “Method of treating cancer with a cancer therapy in combination with another therapeutic agent” (Rappaport Family Institute for Research in the Medical …, priority 2018, dated 2024)

What was measured:
IL-6 = IL-6 quantification in plasma by ELISA after DOX; type: in vivo; details: naive female BALB/c mice, 240 μg DOX IP, one day after injection
Experimental: For determination of IL-6 expression following DOX treatment, 7 weeks old naïve female BALB/c mice (n=3) were IP injected with 240 μg DOX. Control mice (n=3) were left untreated. One day after the injection, mice were bled by cardiac puncture and blood was collected into EDTA-coated tubes. […] Supernatants (representing the plasma samples) were collected and the level of IL-6 in the plasma was determined by ELISA (IL-6 Quantikine ELISA Kit, R&D systems) according to the manufacturer's instruction.
To investigate the effect of chemotherapy on the level of IL-6 in the circulation, naïve 7-weeks old female BALB/c mice were IP injected with 240 μg DOX (doxorubicin, Adriamycin™) or were left untreated (control mice). One day after the injection, the level of IL-6 in the plasma was determined by ELISA.

circulating factors = assay: Mouse L308 Array screen of plasma from naive mice treated with FOLFOX or Paclitaxel chemotherapy; type: in vivo; details: circulating level, BALB/c mice
Experimental: Determination of proteins expression using protein arrays was performed according to the manufacturer's instructions.
To identify host-derived circulating factors whose levels change in response to chemotherapy, a protein array-based screens were performed using plasma from naïve (non-tumor bearing) mice that were treated with different chemotherapy types. The use of naïve mice allows identification of factors specifically generated by the host in response to chemotherapy, independent of tumor presence. […] Control mice (n=5) were injected with vehicle control. Twenty-four hours after treatment administration, mice were sacrificed, plasma was isolated and pooled per group. […] These factors, and their respective fold changes in response to each chemotherapy type (Paclitaxel™, FOLFOX™), are listed in Table 5.

COc1cccc2c1C(=O)c1c(O)c3c(c(O)c1C2=O)C[C@@](O)(C(=O)CO)C[C@@H]3O[C@H]1C[C@H](N)[C@H](O)[C@H](C)O1 [DOX, doxorubicin]
increase of plasma level of IL-6 compared to control (IL-6): 22 fold

CC(=O)O[C@H]1C(=O)[C@@]2(C)[C@H]([C@H](OC(=O)c3ccccc3)[C@]3(O)C[C@H](OC(=O)[C@H](O)[C@@H](NC(=O)c4ccccc4)c4ccccc4)C(C)=C1C3(C)C)[C@]1(OC(C)=O)CO[C@@H]1C[C@@H]2O [Paclitaxel, paclitaxel]
Fold change CRG-2 (chemotherapy-treated vs control) (circulating factors): >10 fold
Fold change CRP (chemotherapy-treated vs control) (circulating factors): >10 fold
Fold change CXCL14/BRAK (chemotherapy-treated vs control) (circulating factors): 2.6 fold
Fold change CXCL16 (chemotherapy-treated vs control) (circulating factors): 4.4 fold
Fold change CXCR2/IL-8 RB (chemotherapy-treated vs control) (circulating factors): 2.0 fold
Fold change CXCR6 (chemotherapy-treated vs control) (circulating factors): 3.6 fold
Fold change Cardiotrophin-1 (chemotherapy-treated vs control) (circulating factors): >10 fold
Fold change Cripto (chemotherapy-treated vs control) (circulating factors): >10 fold
Fold change Dkk-3 (chemotherapy-treated vs control) (circulating factors): >10 fold
Fold change Endocan (chemotherapy-treated vs control) (circulating factors): 4.4 fold
Fold change Endostatin (chemotherapy-treated vs control) (circulating factors): 4.9 fold
Fold change Eotaxin-2 (chemotherapy-treated vs control) (circulating factors): 3.4 fold
Fold change Erythropoietin (EPO) (chemotherapy-treated vs control) (circulating factors): 3.9 fold
Fold change Frizzled-6 (chemotherapy-treated vs control) (circulating factors): 2.2 fold
Fold change Frizzled-7 (chemotherapy-treated vs control) (circulating factors): 6.1 fold
Fold change GITR (chemotherapy-treated vs control) (circulating factors): >10 fold
Fold change GM-CSF (chemotherapy-treated vs control) (circulating factors): 2.4 fold
Fold change IGFBP-1 (chemotherapy-treated vs control) (circulating factors): >10 fold
Fold change IL-1 R4/ST2 (chemotherapy-treated vs control) (circulating factors): 1.9 fold
Fold change IL-1 alpha (chemotherapy-treated vs control) (circulating factors): >10 fold
Fold change IL-3 R alpha (chemotherapy-treated vs control) (circulating factors): >10 fold
Fold change IL-7 R alpha (chemotherapy-treated vs control) (circulating factors): 8.8 fold
Fold change IL-9 R (chemotherapy-treated vs control) (circulating factors): 5.7 fold
Fold change IL-12 p70 (chemotherapy-treated vs control) (circulating factors): >10 fold
Fold change IL-15 (chemotherapy-treated vs control) (circulating factors): 2.5 fold
Fold change IL-15 R alpha (chemotherapy-treated vs control) (circulating factors): 3.4 fold
Fold change IL-17R (chemotherapy-treated vs control) (circulating factors): 2.6 fold
Fold change IL-18 R alpha/IL-1 R5 (chemotherapy-treated vs control) (circulating factors): >10 fold
Fold change IL-20 (chemotherapy-treated vs control) (circulating factors): >10 fold
Fold change IL-23 R (chemotherapy-treated vs control) (circulating factors): 1.8 fold
Fold change IL-27 (chemotherapy-treated vs control) (circulating factors): 2.0 fold
Fold change IL-28/IFN-lambda (chemotherapy-treated vs control) (circulating factors): 5.4 fold
Fold change IL-31 (chemotherapy-treated vs control) (circulating factors): >10 fold
Fold change LIF (chemotherapy-treated vs control) (circulating factors): >10 fold
Fold change LIX (chemotherapy-treated vs control) (circulating factors): >10 fold
Fold change LRP-6 (chemotherapy-treated vs control) (circulating factors): >10 fold
Fold change Lungkine (chemotherapy-treated vs control) (circulating factors): 2.0 fold
Fold change Lymphotoxin beta R/TNFRSF3 (chemotherapy-treated vs control) (circulating factors): 1.6 fold
Fold change M-CSF (chemotherapy-treated vs control) (circulating factors): 1.8 fold
Fold change MAdCAM-1 (chemotherapy-treated vs control) (circulating factors): >10 fold
Fold change MCP-1 (chemotherapy-treated vs control) (circulating factors): >10 fold
Fold change MIP-1 gamma (chemotherapy-treated vs control) (circulating factors): >10 fold
Fold change MIP-2 (chemotherapy-treated vs control) (circulating factors): 3.1 fold
Fold change MMP-9 (chemotherapy-treated vs control) (circulating factors): 4.3 fold
Fold change P-Selectin (chemotherapy-treated vs control) (circulating factors): >10 fold
Fold change PF-4 (chemotherapy-treated vs control) (circulating factors): 3.6 fold
Fold change Prolactin (chemotherapy-treated vs control) (circulating factors): 4.1 fold
Fold change SDF-1 (chemotherapy-treated vs control) (circulating factors): >10 fold
Fold change Soggy-1 (chemotherapy-treated vs control) (circulating factors): 3.6 fold
Fold change TACI/TNFRSF13B (chemotherapy-treated vs control) (circulating factors): >10 fold
Fold change TARC (chemotherapy-treated vs control) (circulating factors): >10 fold
Fold change TCA-3 (chemotherapy-treated vs control) (circulating factors): 3.0 fold
Fold change TGF-beta 2 (chemotherapy-treated vs control) (circulating factors): 3.4 fold
Fold change TGF-beta RII (chemotherapy-treated vs control) (circulating factors): 2.2 fold
Fold change TNF-alpha (chemotherapy-treated vs control) (circulating factors): 2.8 fold
Fold change TNF-beta/TNFSF1B (chemotherapy-treated vs control) (circulating factors): 2.9 fold
Fold change TPO (chemotherapy-treated vs control) (circulating factors): >10 fold
Fold change TWEAK R/TNFRSF12 (chemotherapy-treated vs control) (circulating factors): >10 fold
Fold change Thrombospondin (chemotherapy-treated vs control) (circulating factors): >10 fold
Fold change Thymus Chemokine-1 (chemotherapy-treated vs control) (circulating factors): >10 fold
Fold change VEGFC (chemotherapy-treated vs control) (circulating factors): >10 fold
Fold change WISP-1/CCN4 (chemotherapy-treated vs control) (circulating factors): 3.7 fold
